Measurements taken from US11427848B2, “Methods for harvesting mammalian cell cultures” (Amgen Inc., priority 2014, dated 2022).

Test system: CHO cell lines (Cell line A and Cell line B)
Type: cell-based, Chinese Hamster
Protocol: To test for the effect of toxicity of high polyoxypropylene-polyoxyethylene block copolymer (LUTROL® F68) concentration on cells, two CHO cell lines (Cell line A and Cell line B) expressing different monoclonal antibodies were carried over 10 passages (at 3 days/passage), at an initial seeding density of 8×10^5 cells/ml in 250 ml shake flasks with cell culture media containing 1, 2, 3, 4 or 5 g/L polyoxypropylene-polyoxyethylene block copolymer (LUTROL® F68).
An overall increase in cell density was observed (3.4-6.5×10^6 cells/ml) after 3 days. Viable cell density was normalized to the 1 g/L condition to enable comparison between the different polyoxypropylene-polyoxyethylene block copolymer (LUTROL® F68) concentrations.
The cells grown in media containing 3, 4 or 5 g/L polyoxypropylene-polyoxyethylene block copolymer (LUTROL® F68) were consistently higher over the passages, in which a 10% increase in cell density was measured compared to the 1 g/L condition (p<0.01) (FIG. 7A). The viability was also greater for the higher polyoxypropylene-polyoxyethylene block copolymer (LUTROL® F68) cultures (mean >95%) (FIG. 7B). […] The variation of viable cell density, % viability.

poloxamer 188 [LUTROL® F68]
cell diameter compared to the 1 g/L condition: increased slightly
increase in cell density compared to the 1 g/L condition: 10%
viability (mean): > 95%
